These results are taken from patent US8207136B2, “Nucleoside compounds and methods of use thereof” (The Board of Trustees of the University of Illinois, priority 2005, dated 2012).

One experiment has as its system p53. Briefly: Gel shift assay with nuclear extracts and p53 consensus probe. The class given is cell-based, human. The following applies: MCF-7 nuclear extracts. As to the method: Either purified p53 protein or nuclear extracts were used in the gel shift assays. For preparation of nuclear extracts, cells treated either with DMSO or different agents (doxorubicin, ARC and actinomycin D) were harvested 24 hours later and lysed in hypotonic buffer (10 mM HEPES pH 7.9, 1.5 mM MgCl2, 10 mM KCl, 0.2 mM PMSF, 0.5 mM DTT, 1 mM Na3VO4, 1 mM NaF, 1 mM Aprotinin and 1 mM Leupeptin), nuclei pelleted and treated with high-salt buffer (20 mM HEPES pH 7.9, 20% (v/v) glycerol, 1.5 mM MgCl2, 0.5 M KCl, 0.2 mM EDTA, 0.2 mM PMSF, 0.5 mM DTT, 1 mM Na3VO4, 1 mM NaF, 1 mM Aprotinin and 1 mM Leupeptin). Nuclear extracts (10 μg) or purified p53 protein (100 ng) were incubated with 0.5 ng of p53 consensus double-stranded oligos (5′-TACAGAACATGTCTAAGCATGCTGGGGACT-3′; Santa Cruz Biotechnology) that were labeled with [γ^32P]ATP. As a control, anti-p53 antibody (PAb421, EMD Biosciences) was used to supershift the p53/DNA complex. The reaction mixtures were resolved on a 4% acrylamide DNA-retardation gel, dried and exposed to X-ray film in the presence of intensifying screen.
Although the effects of ARC were p53-independent, ARC did affect some properties of p53. […] This is in contrast to actinomycin D, which is known to enhance the DNA binding ability of p53 [22]. […] To determine if ARC retains p53 in the cytoplasm, which may lead to decreased binding in the gel shift assays, p53 levels in nuclear lysates were examined.
(In general: Mobility shift assays separate free from complexed probe on a gel.)

Experiment [1] relates to RNA polymerase II transcription. Briefly: Nuclear run-on assay, nuclei from treated HCT-116 cells. The experiment is classed as cell-based, human. The following applies: HCT-116 cells treated 2 hours with 1 mM. As to the method:
(§1) Run-on assays with isolated nuclei were performed as described. Briefly, cells treated with the indicated agents were lysed with hypotonic buffer (10 mM Tris-HCl pH 7.4, 10 mM NaCl and 35 mM MgCl2) and nuclei collected by centrifugation and resuspended in nuclear storage buffer (50 mM HEPES pH 8.0, 5 mM MgCl2, 0.5 mM DTT, 1 mg/ml BSA and 25% (v/v) glycerol) at about 5×10^8 nuclei/ml and stored at −80° C. Transcription reactions were performed in 200 μl volume consisting of 1×10^7 nuclei in the presence of 0.12 M KCl, 7 mM Mg(Ac)2, 25 μCi of [^32P]GTP, 500 μM ATP, UTP and CTP at 30° C. Samples were collected at various time points (18 μl/time point—0, 5, 10, 20 and 30 min) and the reaction terminated by the addition of 57 μl of Sarkosyl solution (1% Sarkosyl, 0.1 M Tris pH 8.0, 0.1 M NaCl, 10 mM EDTA and 200 μg/ml tRNA). The stopped reactions were transferred to Whatman DE81 paper, and washed four times with wash buffer (5% K2HPO4 and 0.3% Na4P2O7) for 10 min, followed by a 5-min water wash. Then the paper was briefly rinsed with 95% ethanol and allowed to dry completely. Radiation was quantitated using a liquid scintillation counter.
Some transcriptional inhibitors such as DRB and flavopiridol repress p21 and hdm2 while increasing p53 levels. […] To evaluate this activity, HCT-116 cells were treated with one of DMSO (control), ARC or DRB, and nuclei were isolated. These nuclei were assayed for rate of transcription either in the presence or absence of α-amanitin using the nuclear run-on assay. […] If ARC inhibits polymerase I and III transcription, the rate of transcription should be substantially lower in the ARC+α-amanitin (FIG. 2A; curve 5) when compared with DMSO+α-amanitin (FIG. 2A; curve 4). However both of these rates of transcription were similar, implying that ARC might preferentially affect only RNA polymerase II transcription.

The target in another experiment is T1, RNA polymerase II (Homo sapiens, UniProt P24928).
T1 construct: nuclei were isolated from normally growing untreated HCT-116 cells and treated with each of these agents; endogenous in cells; host or cells: nuclei of HCT-116 colon cancer cells
Briefly: Nuclear run-on assay, nuclei isolated from untreated HCT-116 cells then treated. The experiment is classed as biochemical. The following applies: 50 μM ARC, 50 μM DRB or 2 μg/ml α-amanitin. As to the method: as §1
In order to evaluate the ability of ARC to bind to and inhibit RNA polymerase II directly (like α-amanitin) or indirectly (like DRB), nuclei were isolated from normally growing untreated HCT-116 cells and treated with each of these agents, and then assayed for rate of transcription by nuclear run-on assay.

Experiment [2] concerns LIM1215 colon cancer cells. The experiment is described as follows: Apoptosis by PI staining and flow cytometry in LIM1215 cells. Conditions: 50 μM, 48 hours. The experiment is classed as cell-based, human. As to the method: For Flow Cytometry, cells were fixed in 70% ethanol and stored at −20° C. until further analysis. Equal numbers of fixed cells were then stained with PI solution (0.1% Triton X-100, 0.2 mg/ml DNase free RNase, 0.02 mg/ml propidium iodide) made in PBS for 15 min at 37° C. and analyzed by a flow cytometer.
In order to evaluate the extent to which ARC induces apoptosis relative to that of the other known nucleoside analog DRB, LIM1215 colon cancer cells were treated with either ARC or DRB for 48 hours.
In general terms: A flow cytometer gives signals particle by particle.

In experiment [3] the test system is HUVECs. The following applies: literature value [28]; read-out: IC50, cord formation; cited from earlier work.
Experiment [4] has as its system HUVECs. The following applies: literature value [28]; read-out: IC50, cell motility; cited from earlier work.

Like-named read-outs stand apart in the source and are kept apart here. Starred links: 1 amine or outer side, 2 acyl side, 3 side chain; linkers in the order of their positions; H or OH if unused. Positions of bridges follow the written chain, without caps; N, C: chain ends. Non-standard residues stand in square brackets, D forms with d. Residues, ends and D or L forms follow the SMILES beside them. Chains are numbered I, II in the order given. Actinocin(9to1) = Cc1c2oc3c(C)ccc(C(=O)[*:1])c3nc-2c(C(=O)[*:2])c(N)c1=O; NMeV = CN[C@H](C(=O)O)C(C)C; Sar = CNCC(=O)O

In the case of `Cc1c2oc3c(C)ccc(C(=O)N[C@@H]4C(=O)N[C@H](C(C)C)C(=O)N5CCC[C@H]5C(=O)N(C)CC(=O)N(C)[C@@H](C(C)C)C(=O)O[C@@H]4C)c3nc-2c(C(=O)N[C@@H]2C(=O)N[C@H](C(C)C)C(=O)N3CCC[C@H]3C(=O)N(C)CC(=O)N(C)[C@@H](C(C)C)C(=O)O[C@@H]2C)c(N)c1=O` [actinomycin D, reference compound] (I: T[dV]P[Sar][NMeV] / II: T[dV]P[Sar][NMeV]; ester I:1-I:C, II:1-II:C; linker I:N-II:N via Actinocin(9to1)), in the experiment on p53, the “DNA binding ability of p53, agent alone” value is on record as “increased the DNA binding ability of p53”.

In the case of `OC[C@H]1O[C@@H](n2cnc3cc(Cl)c(Cl)cc32)[C@H](O)[C@@H]1O` [DRB, 5,6-Dichloro-1-β-ribofuranosylbenzimidazole, reference compound], the “rate of transcription versus control nuclei” value in experiment [1] is given as “lower”. On RNA polymerase II, the “rate of transcription, agent added to isolated nuclei” value is recorded as “did not affect the rate of transcription”. In addition, the “apoptosis (PI staining, flow cytometry)” value in experiment [2] was 23.4%.

For the molecule `CO[C@@H]1[C@H](OC(=O)NC(=O)CCl)CC[C@]2(CO2)[C@H]1[C@@]1(C)O[C@@H]1CC=C(C)C` [TNP-470], the IC50 (as a rule, the concentration at which inhibition is half-maximal) with HUVECs [3] is ~700 nM; with HUVECs [4] it was ~600 nM.

In the case of `CC[C@H](C)[C@@H]1NC(=O)CNC(=O)[C@@H]2Cc3c([nH]c4cc(O)ccc34)[S+]([O-])C[C@@H](NC(=O)CNC1=O)C(=O)N[C@@H](CC(N)=O)C(=O)N1C[C@H](O)C[C@H]1C(=O)N[C@@H]([C@@H](C)[C@@H](O)CO)C(=O)N2` (stereo in doubt) [α-amanitin], the “rate of transcription, agent added to isolated nuclei” value at RNA polymerase II was “dramatically inhibited transcription”.
